Laboratory results published in patent publication US9340590B2 (priority 2011, dated 2016).
Like-named read-outs stand apart in the source and are kept apart here. Positions of bridges follow the written chain, without caps; N, C: chain ends. Non-standard residues stand in square brackets, D forms with d. Residues, ends and D or L forms follow the SMILES beside them. hPhe = N[C@@H](CCc1ccccc1)C(=O)O; pGlu = O=C1CC[C@@H](C(=O)O)N1

Experiments:
Experiment in all cases: cell-based
hNav1.7 = hNav1.7 (Homo sapiens, UniProt Q15858); type: cell-based; details: IonWorks Quattro, read-out: IWQ Use Nav1.7
hNav1.7, sequence (Q15858 whole entry, looked up): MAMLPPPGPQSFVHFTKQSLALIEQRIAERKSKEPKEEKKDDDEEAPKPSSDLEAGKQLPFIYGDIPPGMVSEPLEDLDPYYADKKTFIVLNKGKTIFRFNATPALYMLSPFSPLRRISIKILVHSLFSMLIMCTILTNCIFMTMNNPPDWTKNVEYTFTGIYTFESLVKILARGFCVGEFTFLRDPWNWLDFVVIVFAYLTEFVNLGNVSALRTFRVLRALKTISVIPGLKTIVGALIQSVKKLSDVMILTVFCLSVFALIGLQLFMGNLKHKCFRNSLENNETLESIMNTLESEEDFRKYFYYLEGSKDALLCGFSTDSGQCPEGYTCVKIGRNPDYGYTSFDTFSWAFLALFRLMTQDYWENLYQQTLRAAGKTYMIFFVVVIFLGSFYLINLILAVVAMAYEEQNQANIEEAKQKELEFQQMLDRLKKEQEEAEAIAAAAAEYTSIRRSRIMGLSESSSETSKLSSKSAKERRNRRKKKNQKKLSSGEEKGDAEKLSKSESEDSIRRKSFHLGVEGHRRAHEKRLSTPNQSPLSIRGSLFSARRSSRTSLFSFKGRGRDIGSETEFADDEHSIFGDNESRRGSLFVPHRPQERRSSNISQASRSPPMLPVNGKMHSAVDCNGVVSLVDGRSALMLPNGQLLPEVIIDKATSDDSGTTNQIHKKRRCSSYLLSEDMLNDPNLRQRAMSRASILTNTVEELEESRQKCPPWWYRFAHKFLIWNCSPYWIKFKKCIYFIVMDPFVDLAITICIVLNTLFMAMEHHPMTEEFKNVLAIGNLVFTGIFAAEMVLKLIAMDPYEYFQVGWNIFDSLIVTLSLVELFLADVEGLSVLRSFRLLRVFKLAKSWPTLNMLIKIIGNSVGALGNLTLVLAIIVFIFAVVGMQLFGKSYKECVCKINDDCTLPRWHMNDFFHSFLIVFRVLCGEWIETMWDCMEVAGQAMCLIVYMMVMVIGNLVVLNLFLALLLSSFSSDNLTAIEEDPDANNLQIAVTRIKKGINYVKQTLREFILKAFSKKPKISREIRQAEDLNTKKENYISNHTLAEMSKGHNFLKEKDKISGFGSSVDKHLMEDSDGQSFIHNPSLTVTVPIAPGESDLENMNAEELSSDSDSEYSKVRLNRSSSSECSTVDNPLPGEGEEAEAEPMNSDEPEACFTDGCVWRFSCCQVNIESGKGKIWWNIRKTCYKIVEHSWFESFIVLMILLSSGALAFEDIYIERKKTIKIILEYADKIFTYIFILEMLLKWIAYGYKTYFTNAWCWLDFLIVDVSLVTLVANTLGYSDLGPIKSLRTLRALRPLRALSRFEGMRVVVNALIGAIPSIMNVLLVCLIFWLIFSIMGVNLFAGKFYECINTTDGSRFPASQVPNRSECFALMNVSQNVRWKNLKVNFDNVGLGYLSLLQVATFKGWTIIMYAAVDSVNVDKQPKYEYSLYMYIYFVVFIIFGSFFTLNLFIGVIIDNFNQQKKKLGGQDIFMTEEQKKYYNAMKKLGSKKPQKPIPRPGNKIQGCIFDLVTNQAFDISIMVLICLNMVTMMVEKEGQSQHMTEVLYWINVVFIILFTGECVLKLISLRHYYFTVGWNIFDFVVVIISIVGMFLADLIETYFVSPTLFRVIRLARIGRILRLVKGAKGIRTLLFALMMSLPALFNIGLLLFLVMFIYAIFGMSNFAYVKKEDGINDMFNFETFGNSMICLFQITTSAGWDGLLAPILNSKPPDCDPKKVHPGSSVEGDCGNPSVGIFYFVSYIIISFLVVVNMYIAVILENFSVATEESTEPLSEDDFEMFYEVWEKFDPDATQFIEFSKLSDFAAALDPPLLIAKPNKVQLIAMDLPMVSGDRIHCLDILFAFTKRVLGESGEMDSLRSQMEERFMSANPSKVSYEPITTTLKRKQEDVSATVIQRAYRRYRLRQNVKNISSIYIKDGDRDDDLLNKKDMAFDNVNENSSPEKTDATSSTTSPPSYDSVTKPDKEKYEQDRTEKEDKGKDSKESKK

hNav1.5 = hNav1.5 (Homo sapiens, UniProt Q14524); details: IonWorks Quattro, read-out: IWQ Use Nav1.5
hNav1.5, sequence (Q14524 whole entry, looked up): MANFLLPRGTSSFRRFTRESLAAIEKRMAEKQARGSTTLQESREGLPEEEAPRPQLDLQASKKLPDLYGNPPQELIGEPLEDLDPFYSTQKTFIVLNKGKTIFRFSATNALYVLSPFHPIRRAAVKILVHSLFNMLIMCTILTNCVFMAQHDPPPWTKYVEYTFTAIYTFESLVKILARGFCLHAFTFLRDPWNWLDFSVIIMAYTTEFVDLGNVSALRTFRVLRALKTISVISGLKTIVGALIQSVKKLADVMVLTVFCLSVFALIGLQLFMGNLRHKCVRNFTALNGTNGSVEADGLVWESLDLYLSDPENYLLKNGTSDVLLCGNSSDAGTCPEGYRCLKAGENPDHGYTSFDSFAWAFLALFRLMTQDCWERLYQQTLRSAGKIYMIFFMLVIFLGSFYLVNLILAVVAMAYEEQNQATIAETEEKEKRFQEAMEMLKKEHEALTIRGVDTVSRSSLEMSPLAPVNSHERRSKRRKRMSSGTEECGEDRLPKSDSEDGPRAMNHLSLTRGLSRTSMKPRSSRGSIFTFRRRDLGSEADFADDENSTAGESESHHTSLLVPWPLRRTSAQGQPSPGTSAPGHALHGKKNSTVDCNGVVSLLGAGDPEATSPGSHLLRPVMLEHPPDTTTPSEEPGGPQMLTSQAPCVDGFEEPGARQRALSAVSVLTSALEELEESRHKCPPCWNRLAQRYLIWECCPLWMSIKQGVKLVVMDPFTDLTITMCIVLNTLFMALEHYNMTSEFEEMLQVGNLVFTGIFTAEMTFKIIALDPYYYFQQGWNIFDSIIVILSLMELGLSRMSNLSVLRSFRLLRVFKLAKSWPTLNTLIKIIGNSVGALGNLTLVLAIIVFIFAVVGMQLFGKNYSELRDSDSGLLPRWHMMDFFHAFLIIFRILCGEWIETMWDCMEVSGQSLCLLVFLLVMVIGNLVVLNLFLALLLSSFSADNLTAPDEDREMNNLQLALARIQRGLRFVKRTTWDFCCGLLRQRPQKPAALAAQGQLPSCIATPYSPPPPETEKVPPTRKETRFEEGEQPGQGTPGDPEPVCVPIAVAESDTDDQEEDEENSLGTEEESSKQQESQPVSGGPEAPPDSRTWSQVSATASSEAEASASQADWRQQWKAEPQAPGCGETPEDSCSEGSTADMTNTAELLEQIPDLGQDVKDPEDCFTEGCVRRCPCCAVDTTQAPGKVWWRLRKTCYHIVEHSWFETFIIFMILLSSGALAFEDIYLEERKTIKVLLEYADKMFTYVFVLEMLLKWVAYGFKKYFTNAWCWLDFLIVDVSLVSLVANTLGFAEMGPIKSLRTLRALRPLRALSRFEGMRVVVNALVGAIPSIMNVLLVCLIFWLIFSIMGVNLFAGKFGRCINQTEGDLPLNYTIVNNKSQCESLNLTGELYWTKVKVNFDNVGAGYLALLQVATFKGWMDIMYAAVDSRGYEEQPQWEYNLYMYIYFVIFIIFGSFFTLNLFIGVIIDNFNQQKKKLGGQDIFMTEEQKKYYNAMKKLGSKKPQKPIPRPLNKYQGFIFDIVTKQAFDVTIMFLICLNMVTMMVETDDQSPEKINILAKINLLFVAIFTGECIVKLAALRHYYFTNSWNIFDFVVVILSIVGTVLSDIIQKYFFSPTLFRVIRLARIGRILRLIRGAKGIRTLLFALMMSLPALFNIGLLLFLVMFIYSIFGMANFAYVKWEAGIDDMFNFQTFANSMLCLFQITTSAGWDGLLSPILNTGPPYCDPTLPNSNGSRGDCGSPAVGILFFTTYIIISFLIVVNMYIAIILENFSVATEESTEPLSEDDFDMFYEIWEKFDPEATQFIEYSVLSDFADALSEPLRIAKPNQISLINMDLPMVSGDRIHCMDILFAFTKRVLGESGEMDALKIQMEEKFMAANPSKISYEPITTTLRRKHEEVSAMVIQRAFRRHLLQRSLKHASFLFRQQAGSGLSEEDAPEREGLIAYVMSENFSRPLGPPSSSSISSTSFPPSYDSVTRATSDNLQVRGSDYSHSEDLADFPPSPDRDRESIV

hNav1.3 = hNav1.3 (Homo sapiens, UniProt Q9NY46); details: IonWorks Quattro, read-out: IWQ Use Nav1.3
[1] = use-dependent protocol, hNav1.7
[2] = use-dependent protocol, hNav1.5
[3] = use-dependent protocol, hNav1.3
[4] = clamped to −110 mV, depolarized to −10 mV, 5 min after compound, n=2

CC[C@H](C)[C@@H]1NC(=O)[C@@H]2CSSC[C@@H]3NC(=O)[C@H](C(C)C)NC(=O)[C@H](CC(C)C)NC(=O)[C@H](CC(N)=O)NC(=O)[C@@H]4CCCN4C(=O)[C@H](CCCNC(=N)N)NC(=O)[C@H](CSSC[C@H](NC(=O)[C@@H](N)CC(=O)O)C(=O)N[C@@H](CC(C)C)C(=O)NCC(=O)N[C@@H](C)C(=O)N[C@@H](CCSC)C(=O)N[C@@H](CCCNC(=N)N)C(=O)N[C@@H](CCCCN)C(=O)N2)NC(=O)[C@H](CSSC[C@@H](C(=O)N[C@@H](CCCCN)C(=O)N[C@@H](Cc2ccc(O)cc2)C(=O)N[C@H](C(=O)N[C@@H](Cc2ccccc2)C(N)=O)C(C)C)NC(=O)[C@H](Cc2c[nH]c4ccccc24)NC(=O)[C@H](CC(=O)O)NC(=O)[C@H](Cc2c[nH]cn2)NC(=O)[C@H]([C@@H](C)O)NC(=O)[C@H](CCCNC(=N)N)NC(=O)[C@H](CO)NC3=O)NC(=O)[C@H](CCCCN)NC(=O)[C@H](CC(=O)O)NC(=O)[C@H](CC(N)=O)NC(=O)[C@H](CC(=O)O)NC(=O)[C@@H]2CCCN2C1=O [compound 769] (H-DCLGAMRKCIPDNDKCCRPNLVCSRTHDWCKYVF-NH2; disulfide 2-17, 9-23, 16-30)
IC50 (hNav1.7; use-dependent block, hNav1.7): > 5000 nM
IC50 (hNav1.5; use-dependent block, hNav1.5): 39 µM
IC50 (hNav1.3; use-dependent block, hNav1.3): > 5000 nM

CC[C@H](C)[C@@H]1NC(=O)[C@@H]2CSSC[C@@H]3NC(=O)[C@H](C(C)C)NC(=O)[C@H](CC(C)C)NC(=O)[C@H](CC(N)=O)NC(=O)[C@@H]4CCCN4C(=O)[C@H](CCCNC(=N)N)NC(=O)[C@H](CSSC[C@H](NC(=O)[C@@H](N)CC(=O)O)C(=O)N[C@@H](CC(C)C)C(=O)NCC(=O)N[C@@H](Cc4ccc(OC)c(OC)c4)C(=O)N[C@@H](CC(C)C)C(=O)N[C@@H](CCCNC(=N)N)C(=O)N[C@@H](CCCCN)C(=O)N2)NC(=O)[C@H](CSSC[C@@H](C(=O)N[C@@H](CCCCN)C(=O)N[C@@H](Cc2ccc(O)cc2)C(=O)N[C@H](C(=O)N[C@@H](Cc2ccccc2)C(N)=O)C(C)C)NC(=O)[C@H](Cc2c[nH]c4ccccc24)NC(=O)[C@H](CCCCN)NC(=O)[C@H](Cc2c[nH]cn2)NC(=O)[C@H]([C@@H](C)O)NC(=O)[C@H](CCCNC(=N)N)NC(=O)[C@H](CO)NC3=O)NC(=O)[C@H](CCCCN)NC(=O)[C@H](CC(=O)O)NC(=O)[C@H](CC(N)=O)NC(=O)[C@H](CC(=O)O)NC(=O)[C@@H]2CCCN2C1=O [compound 645]
IC50 (hNav1.7; [1]): 2400 nM
IC50 (hNav1.5; [2]): > 5 µM
IC50 (hNav1.3; [3]): 2600 nM

CC[C@H](C)[C@@H]1NC(=O)[C@@H]2CSSC[C@@H]3NC(=O)[C@H](C(C)C)NC(=O)[C@H](CC(C)C)NC(=O)[C@H](CC(N)=O)NC(=O)[C@@H]4CCCN4C(=O)[C@H](CCCNC(=N)N)NC(=O)[C@H](CSSC[C@H](NC(=O)[C@@H](N)CC(=O)O)C(=O)N[C@@H](CC(C)C)C(=O)NCC(=O)N[C@@H](C)C(=O)N[C@@H](CCSC)C(=O)N[C@@H](CCCNC(=N)N)C(=O)N[C@@H](CCCCN)C(=O)N2)NC(=O)[C@H](CSSC[C@@H](C(=O)N[C@@H](C)C(=O)N[C@@H](Cc2ccc(O)cc2)C(=O)N[C@H](C(=O)N[C@@H](Cc2ccccc2)C(N)=O)C(C)C)NC(=O)[C@H](Cc2c[nH]c4ccccc24)NC(=O)[C@H](CCCCN)NC(=O)[C@H](Cc2c[nH]cn2)NC(=O)[C@H]([C@@H](C)O)NC(=O)[C@H](CCCNC(=N)N)NC(=O)[C@H](CO)NC3=O)NC(=O)[C@H](CCCCN)NC(=O)[C@H](CC(=O)O)NC(=O)[C@H](CC(N)=O)NC(=O)[C@H](CC(=O)O)NC(=O)[C@@H]2CCCN2C1=O [compound 433] (H-DCLGAMRKCIPDNDKCCRPNLVCSRTHKWCAYVF-NH2; disulfide 2-17, 9-23, 16-30)
IC50 (hNav1.7; use-dependent block, hNav1.7): > 5000 nM
IC50 (hNav1.5; use-dependent block, hNav1.5): > 5 µM
IC50 (hNav1.3; use-dependent block, hNav1.3): > 5000 nM

CC[C@H](C)[C@@H]1NC(=O)[C@@H]2CSSC[C@@H]3NC(=O)[C@H](C(C)C)NC(=O)[C@H](CC(C)C)NC(=O)[C@H](CC(N)=O)NC(=O)[C@@H]4CCCN4C(=O)[C@H](CCCNC(=N)N)NC(=O)[C@H](CSSC[C@H](NC(=O)[C@@H]4CCC(=O)N4)C(=O)N[C@@H](CC(C)C)C(=O)NCC(=O)N[C@@H](Cc4ccccc4)C(=O)N[C@@H](CCSC)C(=O)N[C@@H](CCCNC(=N)N)C(=O)N[C@@H](CCCCN)C(=O)N2)NC(=O)[C@H](CSSC[C@@H](C(=O)N[C@@H](CCCCN)C(=O)N[C@@H](Cc2ccc(O)cc2)C(=O)N[C@H](C(=O)N[C@@H](Cc2ccccc2)C(N)=O)C(C)C)NC(=O)[C@H](Cc2c[nH]c4ccccc24)NC(=O)[C@H](CCCCN)NC(=O)[C@H](Cc2c[nH]cn2)NC(=O)[C@H]([C@@H](C)O)NC(=O)[C@H](CCCNC(=N)N)NC(=O)[C@H](CO)NC3=O)NC(=O)[C@H](CCCCN)NC(=O)[C@H](CC(=O)O)NC(=O)[C@H](CC(N)=O)NC(=O)[C@H](CC(=O)O)NC(=O)[C@@H]2CCCN2C1=O [SEQ ID NO: 188] ([pGlu]CLGFMRKCIPDNDKCCRPNLVCSRTHKWCKYVF-NH2; disulfide 2-17, 9-23, 16-30)
IC50 (hNav1.7; [4]): 170 nM
IC50 (hNav1.5; [4]): 10.7 µM
IC50 (hNav1.3; [4]): 110 nM

CC[C@H](C)[C@@H]1NC(=O)[C@@H]2CSSC[C@@H]3NC(=O)[C@H](C(C)C)NC(=O)[C@H](CC(C)C)NC(=O)[C@H](CC(N)=O)NC(=O)[C@@H]4CCCN4C(=O)[C@H](CCCNC(=N)N)NC(=O)[C@H](CSSC[C@H](NC(=O)[C@@H](N)CC(=O)O)C(=O)N[C@@H](CC(C)C)C(=O)NCC(=O)N[C@@H](C)C(=O)N[C@@H](Cc4ccccc4)C(=O)N[C@@H](CCCNC(=N)N)C(=O)N[C@@H](CCCCN)C(=O)N2)NC(=O)[C@H](CSSC[C@@H](C(=O)N[C@@H](CCCCN)C(=O)N[C@@H](Cc2ccc(O)cc2)C(=O)N[C@H](C(=O)N[C@@H](Cc2ccccc2)C(=O)O)C(C)C)NC(=O)[C@H](Cc2c[nH]c4ccccc24)NC(=O)[C@H](CC(N)=O)NC(=O)[C@H](Cc2c[nH]cn2)NC(=O)[C@H]([C@@H](C)O)NC(=O)[C@H](CCCNC(=N)N)NC(=O)[C@H](CO)NC3=O)NC(=O)[C@H](CCCCN)NC(=O)[C@H](CC(=O)O)NC(=O)[C@H](CC(N)=O)NC(=O)[C@H](CC(=O)O)NC(=O)[C@@H]2CCCN2C1=O [compound 832] (H-DCLGAFRKCIPDNDKCCRPNLVCSRTHNWCKYVF-OH; disulfide 2-17, 9-23, 16-30)
IC50 (hNav1.7; use-dependent block, hNav1.7): > 5000 nM
IC50 (hNav1.5; use-dependent block, hNav1.5): > 5 µM
IC50 (hNav1.3; use-dependent block, hNav1.3): 4600 nM

CC[C@H](C)[C@@H]1NC(=O)[C@@H]2CSSC[C@@H]3NC(=O)[C@H](C(C)C)NC(=O)[C@H](CC(C)C)NC(=O)[C@H](CC(N)=O)NC(=O)[C@@H]4CCCN4C(=O)[C@H](CCCNC(=N)N)NC(=O)[C@H](CSSC[C@H](NC(=O)[C@@H](N)CC(=O)O)C(=O)N[C@@H](CC(C)C)C(=O)NCC(=O)N[C@@H](CCc4ccccc4)C(=O)N[C@@H](Cc4ccccc4)C(=O)N[C@@H](CCCNC(=N)N)C(=O)N[C@@H](CCCCN)C(=O)N2)NC(=O)[C@H](CSSC[C@@H](C(=O)N[C@@H](CCCCN)C(=O)N[C@@H](Cc2ccc(O)cc2)C(=O)N[C@H](C(=O)N[C@@H](Cc2ccccc2)C(N)=O)C(C)C)NC(=O)[C@H](Cc2c[nH]c4ccccc24)NC(=O)[C@H](CCCCN)NC(=O)[C@H](Cc2c[nH]cn2)NC(=O)[C@H]([C@@H](C)O)NC(=O)[C@H](CCCNC(=N)N)NC(=O)[C@H](CO)NC3=O)NC(=O)[C@H](CCCCN)NC(=O)[C@H](CC(=O)O)NC(=O)[C@H](CC(N)=O)NC(=O)[C@H](CC(=O)O)NC(=O)[C@@H]2CCCN2C1=O [compound 631] (H-DCLG[hPhe]FRKCIPDNDKCCRPNLVCSRTHKWCKYVF-NH2; disulfide 2-17, 9-23, 16-30)
IC50 (hNav1.7; [1]): 19 nM
IC50 (hNav1.5; [2]): 4.9 µM
IC50 (hNav1.3; [3]): 5 nM
